Results reported in ChEMBL document CHEMBL1157872, “Theoretical models of pentamidine analogs activity based on their DNA minor groove complexes” (Eur J Med Chem, 2010).

Experiments:
Nucleic Acid [1] = experiment: Binding affinity to d(CGCGATATCGCG)2 dodecamer assessed as change in melting temperature; format: nucleic-acid assay
Nucleic Acid [2] = system: Nucleic Acid

## N=C(N)c1ccc(OCCCCCOc2ccc(C(=N)N)cc2)cc1
Nucleic Acid [1]
  ΔTm: 6.58 °C
Nucleic Acid [2]
  ΔTm: 4.65 °C

## c1cc(-c2ccc(-c3ccc(C4=NCCN4)cc3)o2)ccc1C1=NCCN1
Nucleic Acid [2]
  ΔTm: 11.4 °C

## CCCCNC(=N)c1ccc(OCCOCCOc2ccc(C(=N)NCCCC)cc2)cc1
Nucleic Acid [1]
  ΔTm: 3.3 °C
Nucleic Acid [2]
  ΔTm: 3.84 °C

## CCN1CCN=C1c1ccc(-c2ccc(-c3ccc(C4=NCCN4CC)cc3)o2)cc1
Nucleic Acid [2]
  ΔTm: 1.9 °C

## CN(CCCCCN(C)c1ccc(C(=N)N)cc1)c1ccc(C(=N)N)cc1
Nucleic Acid [1]
  ΔTm: 1.1 °C
Nucleic Acid [2]
  ΔTm: 1.17 °C

## COc1cc(C(=N)N)cc(OC)c1OCCCCCOc1c(OC)cc(C(=N)N)cc1OC
Nucleic Acid [1]
  ΔTm: 2.55 °C
Nucleic Acid [2]
  ΔTm: 2.35 °C

## N=C(N)c1ccc(-c2ccc(-c3ccc(C(=N)N)cc3)o2)cc1
Nucleic Acid [2]
  ΔTm: 11.7 °C

## CCCNC(=N)c1ccc(-c2ccc(-c3ccc(C(=N)NCCC)cc3)o2)cc1
Nucleic Acid [2]
  ΔTm: 13 °C

## N=C(N)c1ccc(OCCOCCOc2ccc(C(=N)N)cc2)cc1
Nucleic Acid [1]
  ΔTm: 4.2 °C
Nucleic Acid [2]
  ΔTm: 2.92 °C

## N=C(NC1CCCCC1)c1ccc(OCCOCCOc2ccc(C(=N)NC3CCCCC3)cc2)cc1
Nucleic Acid [1]
  ΔTm: 4.3 °C
Nucleic Acid [2]
  ΔTm: 5.08 °C

## Cn1cc(NC(=O)c2cc(NC(=O)CNC(=N)N)cn2C)cc1C(=O)NCCC(=N)N
Nucleic Acid [2]
  ΔTm: 31 °C

## N=C(N)c1ccc(NCCNCCNc2ccc(C(=N)N)cc2)cc1
Nucleic Acid [1]
  ΔTm: 5.48 °C
Nucleic Acid [2]
  ΔTm: 5.84 °C

## N=C(N)c1ccc(/N=N/Nc2ccc(C(=N)N)cc2)cc1
Nucleic Acid [1]
  ΔTm: 11.9 °C
